The structures appear in SMILES notation.

The first assay deals with LRRK2 G2019S (Homo sapiens, UniProt Q5S007, G2019S). Briefly: LRRK2 G2019S Km ATP LanthaScreen assay. The class given is biochemical.
Chain of LRRK2 G2019S (Q5S007 whole entry G2019S): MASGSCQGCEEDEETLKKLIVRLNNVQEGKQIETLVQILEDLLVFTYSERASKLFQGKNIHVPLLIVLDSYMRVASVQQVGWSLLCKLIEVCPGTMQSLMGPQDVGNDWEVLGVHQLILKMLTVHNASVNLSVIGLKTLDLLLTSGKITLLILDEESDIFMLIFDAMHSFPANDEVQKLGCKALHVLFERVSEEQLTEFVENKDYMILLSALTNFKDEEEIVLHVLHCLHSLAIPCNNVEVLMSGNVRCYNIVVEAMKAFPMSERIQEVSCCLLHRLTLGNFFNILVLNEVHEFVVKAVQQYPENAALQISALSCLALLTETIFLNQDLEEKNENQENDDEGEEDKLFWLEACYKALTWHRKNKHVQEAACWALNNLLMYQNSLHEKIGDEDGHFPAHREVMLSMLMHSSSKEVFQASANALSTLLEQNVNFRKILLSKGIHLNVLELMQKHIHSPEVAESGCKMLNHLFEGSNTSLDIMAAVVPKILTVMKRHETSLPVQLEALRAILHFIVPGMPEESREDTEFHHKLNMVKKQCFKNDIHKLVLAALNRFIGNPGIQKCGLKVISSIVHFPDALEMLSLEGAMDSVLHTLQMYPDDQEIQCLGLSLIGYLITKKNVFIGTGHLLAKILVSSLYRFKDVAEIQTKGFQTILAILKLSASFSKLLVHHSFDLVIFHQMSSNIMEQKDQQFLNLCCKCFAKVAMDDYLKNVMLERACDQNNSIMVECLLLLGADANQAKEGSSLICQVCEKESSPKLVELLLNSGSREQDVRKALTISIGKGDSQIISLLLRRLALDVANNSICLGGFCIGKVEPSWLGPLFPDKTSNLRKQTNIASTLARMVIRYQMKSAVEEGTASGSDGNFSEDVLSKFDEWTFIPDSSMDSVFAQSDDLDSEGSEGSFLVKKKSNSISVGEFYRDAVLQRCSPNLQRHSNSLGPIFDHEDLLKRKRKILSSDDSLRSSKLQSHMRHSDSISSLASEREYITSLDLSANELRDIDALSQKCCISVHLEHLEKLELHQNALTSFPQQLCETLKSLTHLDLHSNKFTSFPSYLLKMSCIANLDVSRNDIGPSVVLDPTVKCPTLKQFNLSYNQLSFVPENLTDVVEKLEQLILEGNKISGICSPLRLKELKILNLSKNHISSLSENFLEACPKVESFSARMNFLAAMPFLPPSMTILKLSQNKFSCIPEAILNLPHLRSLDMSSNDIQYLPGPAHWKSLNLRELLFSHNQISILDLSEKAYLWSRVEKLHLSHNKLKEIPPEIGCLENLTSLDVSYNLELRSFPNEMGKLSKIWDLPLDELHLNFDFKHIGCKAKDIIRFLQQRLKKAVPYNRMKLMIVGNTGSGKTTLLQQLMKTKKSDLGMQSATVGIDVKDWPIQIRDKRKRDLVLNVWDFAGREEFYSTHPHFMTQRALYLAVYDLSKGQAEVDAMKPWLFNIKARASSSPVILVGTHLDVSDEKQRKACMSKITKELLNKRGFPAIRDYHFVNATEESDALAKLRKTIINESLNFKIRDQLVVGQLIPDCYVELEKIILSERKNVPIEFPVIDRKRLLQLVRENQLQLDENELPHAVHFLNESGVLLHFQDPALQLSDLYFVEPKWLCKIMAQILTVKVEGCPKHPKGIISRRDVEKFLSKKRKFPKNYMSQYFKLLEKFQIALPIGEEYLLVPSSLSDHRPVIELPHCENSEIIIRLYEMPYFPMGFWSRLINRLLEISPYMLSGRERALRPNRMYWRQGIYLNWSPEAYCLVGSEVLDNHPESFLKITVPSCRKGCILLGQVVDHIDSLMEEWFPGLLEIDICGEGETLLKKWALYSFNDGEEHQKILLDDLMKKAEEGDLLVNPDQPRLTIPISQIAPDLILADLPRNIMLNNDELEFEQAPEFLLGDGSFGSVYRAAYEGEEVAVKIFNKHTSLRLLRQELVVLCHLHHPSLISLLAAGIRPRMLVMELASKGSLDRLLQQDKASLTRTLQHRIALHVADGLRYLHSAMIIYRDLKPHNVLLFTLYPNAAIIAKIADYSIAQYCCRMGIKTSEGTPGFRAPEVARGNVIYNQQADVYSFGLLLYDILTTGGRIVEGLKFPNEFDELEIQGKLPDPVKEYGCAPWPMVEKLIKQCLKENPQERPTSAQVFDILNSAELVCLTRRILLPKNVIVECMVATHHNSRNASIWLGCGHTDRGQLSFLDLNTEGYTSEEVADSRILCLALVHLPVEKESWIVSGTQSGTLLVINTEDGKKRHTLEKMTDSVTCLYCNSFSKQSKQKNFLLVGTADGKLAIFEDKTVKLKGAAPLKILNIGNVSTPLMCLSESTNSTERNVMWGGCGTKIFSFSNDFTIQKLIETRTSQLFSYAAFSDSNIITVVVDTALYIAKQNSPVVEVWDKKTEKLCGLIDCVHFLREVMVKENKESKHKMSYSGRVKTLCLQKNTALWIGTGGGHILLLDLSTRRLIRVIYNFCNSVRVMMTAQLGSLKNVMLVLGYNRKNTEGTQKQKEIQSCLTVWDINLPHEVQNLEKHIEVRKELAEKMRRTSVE
Conditions: not given
Background: TR-FRET usually uses a lanthanide donor and a delayed reading to cut background.
Turning to `CO[C@H]1C[C@H](C(=O)Nc2cc3cc(C4(C#N)CC45CC5)ccc3cn2)C1.O=C(O)C(F)(F)F` (stereo partly shown) [Ex-1.1], the “LRRK2 pIC50” value is 8.96.

The same assay, now with this note: read-out: LRRK2 pIC50 (converted).
For `Cc1cc2cnc(NC(=O)C3CC3c3cnn(C)c3)cc2cc1C1CC12CC2` (single isomer, unassigned) [Ex-16.3, 2-(1-methyl-1H-pyrazol-4-yl)-N-(7-methyl-6-(spiro[2.2]pentan-1-yl)isoquinolin-3-yl)cyclopropane-1-carboxamide], the IC50 was 10.5 nM.

In the case of `Cc1cc2cnc(NC(=O)C3CC3c3cnn(C)c3)cc2cc1C1CC12CC2` (single isomer, unassigned) [Ex-16.4, 2-(1-methyl-1H-pyrazol-4-yl)-N-(7-methyl-6-(spiro[2.2]pentan-1-yl)isoquinolin-3-yl)cyclopropane-1-carboxamide], the IC50 was 28.8 nM. As to `CCOC1CC2(C1)CC2C(=O)Nc1cc2cc(C3CCN(C4(C)COCC4F)CC3)c(C)cc2cn1` (single isomer, unassigned) [Ex-16.5, 5-ethoxy-N-(6-(1-(4-fluoro-3-methyltetrahydrofuran-3-yl)piperidin-4-yl)-7-methylisoquinolin-3-yl)spiro[2.3]hexane-1-carboxamide], the IC50 is 0.0813 nM. Same read-out and setting: next, `Cc1cc2cnc(NC(=O)C3C(C)C3c3cnn(C)c3)cc2cc1C1CCN(C2(C)COCC2F)CC1` (single isomer, unassigned) [Ex-16.7, N-(6-(1-(4-fluoro-3-methyltetrahydrofuran-3-yl)piperidin-4-yl)-7-methylisoquinolin-3-yl)-2-methyl-3-(1-methyl-1H-pyrazol-4-yl)cyclopropane-1-carboxamide]: 0.0813 nM; `Cc1cc2cnc(NC(=O)C3CC3c3ccccn3)cc2cc1C1CCN(C2(C)CCOC2)CC1` (single isomer, unassigned) [Ex-16.9, N-(7-methyl-6-(1-(3-methyltetrahydrofuran-3-yl)piperidin-4-yl)isoquinolin-3-yl)-2-(pyridin-2-yl)cyclopropane-1-carboxamide]: 0.132 nM. Still for that read-out and setting: next, `Cc1cc2cnc(NC(=O)C3CC3c3ccccn3)cc2cc1C1CCN(C2(C)CCOC2)CC1` (single isomer, unassigned) [Ex-16.10, N-(7-methyl-6-(1-(3-methyltetrahydrofuran-3-yl)piperidin-4-yl)isoquinolin-3-yl)-2-(pyridin-2-yl)cyclopropane-1-carboxamide]: 0.0813 nM. On to `Cc1cc2cnc(NC(=O)C3CC3c3ccccn3)cc2cc1C1CCN(C2(C)CCOC2)CC1` (single isomer, unassigned) [Ex-16.11, N-(7-methyl-6-(1-(3-methyltetrahydrofuran-3-yl)piperidin-4-yl)isoquinolin-3-yl)-2-(pyridin-2-yl)cyclopropane-1-carboxamide], for which the IC50 is 0.955 nM. Regarding `Cc1cc2cnc(NC(=O)C3CC3c3ccccn3)cc2cc1C1CCN(C2(C)CCOC2)CC1` (single isomer, unassigned) [Ex-16.12, N-(7-methyl-6-(1-(3-methyltetrahydrofuran-3-yl)piperidin-4-yl)isoquinolin-3-yl)-2-(pyridin-2-yl)cyclopropane-1-carboxamide], the IC50 is 0.0813 nM. Still for that read-out and setting: next, `Cc1cc2cnc(NC(=O)C3CC34CC4)cc2cc1C1CCN(C2(C)COCC2O)CC1` (single isomer, unassigned) [Ex-16.13, N-(6-(1-(4-hydroxy-3-methyltetrahydrofuran-3-yl)piperidin-4-yl)-7-methylisoquinolin-3-yl)spiro[2.2]pentane-1-carboxamide]: 0.0813 nM; `N#CC1(c2ccc3cnc(NC(=O)C4CC4)cc3c2)CC12CC2` (single isomer, unassigned) [Ex-18.1, N-(6-(1-cyanospiro[2.2]pentan-1-yl)isoquinolin-3-yl)cyclopropanecarboxamide]: 2.29 nM. For the compound `N#CC1(c2ccc3cnc(NC(=O)C4CC4)cc3c2)CC12CC2` (single isomer, unassigned) [Ex-18.2, N-(6-(1-cyanospiro[2.2]pentan-1-yl)isoquinolin-3-yl)cyclopropanecarboxamide], the IC50 is 3.63 nM.

For `CC1(C)CC1(C#N)c1ccc2cnc(NC(=O)C3CC3)cc2c1` (single isomer, unassigned) [Ex-18.3, (R or S)-N-(6-(1-cyano-2,2-dimethylcyclopropyl)isoquinolin-3-yl)cyclopropanecarboxamide], the IC50 is 24 nM. Same read-out and setting: the figure for `CC1(C)CC1(C#N)c1ccc2cnc(NC(=O)C3CC3)cc2c1` (single isomer, unassigned) [Ex-18.4, (R or S)-N-(6-(1-cyano-2,2-dimethylcyclopropyl)isoquinolin-3-yl)cyclopropanecarboxamide] is 61.7 nM; for `CC1CC1(C#N)c1ccc2cnc(NC(=O)C3CC3)cc2c1` (single isomer, unassigned) [Ex-18.5, (R or S)-N-(6-(1-cyano-2-methylcyclopropyl)isoquinolin-3-yl)cyclopropanecarboxamide] it is 5.75 nM. The same measure, in the same setting: the figure for `CC1CC1(C#N)c1ccc2cnc(NC(=O)C3CC3)cc2c1` (single isomer, unassigned) [Ex-18.6, (R or S)-N-(6-(1-cyano-2-methylcyclopropyl)isoquinolin-3-yl)cyclopropanecarboxamide] is 60.3 nM; for `CC1CC1(C#N)c1ccc2cnc(NC(=O)C3CC3)cc2c1` (single isomer, unassigned) [Ex-18.7, (R or S)-N-(6-(1-cyano-2-methylcyclopropyl)isoquinolin-3-yl)cyclopropanecarboxamide] it is 4.57 nM.

Consider `CC1CC1(C#N)c1ccc2cnc(NC(=O)C3CC3)cc2c1` (single isomer, unassigned) [Ex-18.8, (R or S)-N-(6-(1-cyano-2-methylcyclopropyl)isoquinolin-3-yl)cyclopropanecarboxamide], for which the IC50 was 5.37 nM.

As to `N#CC1(c2cc3cc(NC(=O)C4CC4)ncc3cc2F)CC12CC2` (single isomer, unassigned) [Ex-18.9, (R or S)-N-(6-(1-cyanospiro[2.2]pentan-1-yl)-7-fluoroisoquinolin-3-yl)cyclopropanecarboxamide], the IC50 is 35.5 nM. On to `N#CC1(c2cc3cc(NC(=O)C4CC4)ncc3cc2F)CC12CC2` (single isomer, unassigned) [Ex-18.10, (R or S)-N-(6-(1-cyanospiro[2.2]pentan-1-yl)-7-fluoroisoquinolin-3-yl)cyclopropanecarboxamide], for which the IC50 is 12.6 nM. On the same count and under the same terms, the figure for `N#CC1(c2ccc3cnc(NC(=O)C4CC45CCOCC5)cc3c2)CC12CC2` (single isomer, unassigned) [Ex-18.11, (R or S)-N-(6-((R or S)-1-cyanospiro[2.2]pentan-1-yl)isoquinolin-3-yl)-6-oxaspiro[2.5]octane-1-carboxamide] is 9.55 nM; for `N#CC1(c2ccc3cnc(NC(=O)C4CC45CCOCC5)cc3c2)CC12CC2` (single isomer, unassigned) [Ex-18.12, (R or S)-N-(6-((R or S)-1-cyanospiro[2.2]pentan-1-yl)isoquinolin-3-yl)-6-oxaspiro[2.5]octane-1-carboxamide] it is 1.62 nM. On to `N#CC1(c2cc3cc(NC(=O)C4CC4c4ccccn4)ncc3cc2F)CC12CC2` (single isomer, unassigned) [Ex-18.13, (1R,2R or 1S,2S)-N-(6-((R or S)-1-cyanospiro[2.2]pentan-1-yl)-7-fluoroisoquinolin-3-yl)-2-(pyridin-2-yl)cyclopropane-1-carboxamide], for which the IC50 was 7.41 nM.

Regarding `N#CC1(c2cc3cc(NC(=O)C4CC4c4ccccn4)ncc3cc2F)CC12CC2` (single isomer, unassigned) [Ex-18.14, (1R,2R or 1S,2S)-N-(6-((R or S)-1-cyanospiro[2.2]pentan-1-yl)-7-fluoroisoquinolin-3-yl)-2-(pyridin-2-yl)cyclopropane-1-carboxamide], the IC50 is 60.3 nM. Consider `Cn1cc(C(=O)Nc2cc3cc(C4(C#N)CC45CC5)ccc3cn2)cn1` (single isomer, unassigned) [Ex-18.15, (R or S)-N-(6-(1-cyanospiro[2.2]pentan-1-yl)isoquinolin-3-yl)-1-methyl-1H-pyrazole-4-carboxamide], for which the IC50 was 0.631 nM. Same read-out and setting: the figure for `Cn1cc(C(=O)Nc2cc3cc(C4(C#N)CC45CC5)ccc3cn2)cn1` (single isomer, unassigned) [Ex-18.16, (R or S)-N-(6-(1-cyanospiro[2.2]pentan-1-yl)isoquinolin-3-yl)-1-methyl-1H-pyrazole-4-carboxamide] is 3.09 nM; for `CCC(=O)N1CC(C(=O)Nc2cc3cc(C4(C#N)CC45CC5)ccc3cn2)C1` (single isomer, unassigned) [Ex-19.1, (R or S)-N-(6-(1-cyanospiro[2.2]pentan-1-yl)isoquinolin-3-yl)-1-propionylazetidine-3-carboxamide] it is 10.7 nM. On the same count and under the same terms, the figure for `CC(C)(O)C1CC1C(=O)Nc1cc2cc(C3CCN(C4(C)COC4)CC3)c(Cl)cc2cn1` (single isomer, unassigned) [Ex-22.1, (1R,2R or 1S,2S)-N-(7-chloro-6-(1-(3-methyloxetan-3-yl)piperidin-4-yl)isoquinolin-3-yl)-2-(2-hydroxypropan-2-yl)cyclopropanecarboxamide] is 4.47 nM; for `O=C(Nc1cc2cc(C3CCN(C4COC4)CC3)c(Cl)cc2cn1)[C@@H]1CCCCO1` [Ex-1.10, (S)-N-(7-chloro-6-(1-(oxetan-3-yl)piperidin-4-yl)isoquinolin-3-yl)tetrahydro-2H-pyran-2-carboxamide] it is 3.98 nM; for `C[C@H]1CC(F)(F)CC[C@H]1C(=O)Nc1cc2cc(C3CCN(C4COC4)CC3)c(Cl)cc2cn1` [Ex-1.11, (1R,2S)-N-(7-chloro-6-(1-(oxetan-3-yl)piperidin-4-yl)isoquinolin-3-yl)-4,4-difluoro-2-methylcyclohexane-1-carboxamide] it is 39.8 nM. On the same count and under the same terms, the figure for `O=C(Nc1cc2cc(C3CCN(C4COC4)CC3)c(Cl)cc2cn1)[C@@H]1C[C@@H](O)[C@H](F)C1` [Ex-1.12, (1R,3R,4R)-N-(7-chloro-6-(1-(oxetan-3-yl)piperidin-4-yl)isoquinolin-3-yl)-3-fluoro-4-hydroxycyclopentane-1-carboxamide] is 9.33 nM.

(Values after patent publication US20240398784A1, “C-LINKED ISOQUINOLINE AMIDES AS LRRK2 INHIBITORS, PHARMACEUTICAL COMPOSITIONS, AND USES THEREOF” (Merck Sharp & Dohme LLC, priority 2021, published 2024).)
